The values below come from patent publication US20100215588A1, “THERAPEUTIC DELIVERY OF INHIBITORY NUCLEIC ACID MOLECULES TO THE RESPIRATORY SYSTEM” (priority 2007, published 2010).

One data set deals with A549 lung tumors. The data set can be described thus: A549 lung tumor growth after inhaled Nrf2 siRNA alone or with carboplatin. The format is in vivo, SCID-Beige mice. The settings on record: lung tumor weights; siRNA 100 μg/dose by nebulizer three times a week for 4 weeks; carboplatin 30 mg/kg i.p. twice/week. The procedure:
(§1) Tumor Xenografts: A549 cells (5×10^6) were injected into the hind leg of male athymic nude mice and the tumor was measured weekly. The tumor volumes were measured using the following formula: [length (mm)×width (mm)×width (mm)×0.52]. In the lung metastasis experiments, 2×10^6 A549-C8-luc cells were injected into SCID-Beige mice (Charles River, Mass.) intravenously.
(§2) For in vivo experiments, all siRNA compounds were chemically synthesized being stabilized by alternating 2-O′-Me modifications on both strands. The sequence of siRNA targeting human Nrf2 used for in vivo experiments is 5′-UCCCGUUUGUAGAUGACAA-3′ (sense) and 5′-UUGUCAUCUACAAACGGGA-3′ (antisense). The sequence of control siRNA targeting GFP is 5′-[…]-3′ (sense) and 5′-[…]-3′ (antisense).
For aerosol delivery of Nrf2 or GFP siRNA into lung tumors, 100 μg of siRNA duplex diluted in PBS was aerosolized using a nebulizer. Mice were given three dose of siRNA (100 μg/dose) every week, for 4 weeks, using a nebulizer. Intraperitoneal injections of carboplatin were given at a dose of 30 mg/kg body weight twice/week.
(§3) In Vivo Imaging: Animals inoculated with A549-C8-luc cells, which express a luciferase reporter gene, were anesthetized and injected intraperitoneally with 250 ul of luminescent substrate (15 mg/ml stock) D-Luciferin Firefly (Xenogen Cat# XR-1001). The animals were then imaged and analyzed by using the Xenogen IVIS Optical Imaging Device in the Johns Hopkins Oncology Center.
Statistical Analysis-Statistical comparisons were performed by Student's t-tests. A value of p<0.05 was considered statistically significant. Tumor weights and changes in tumor volume were summarized using descriptive statistics. Differences in tumor measures between treatment groups were examined using linear regression models with generalized estimating equations (GEE). The distributions of both tumor measurements were skewed, so log transformations were used.

The subject of another data set is Nrf2. The data set can be described thus: ARE-Luc Nrf2-dependent reporter activity in orthotopic lung tumors, in vivo imaging. Conditions: siRNA by nebulizer; mice with A549-C8-luc lung tumors; FIG. 5. Also on record: species or system SCID-Beige mice. The procedure: as §1, §2
For aerosol delivery of Nrf2 or GFP siRNA into lung tumors, 100 μg of siRNA duplex diluted in PBS was aerosolized using a nebulizer. Mice were given three dose of siRNA (100 μg/dose) every week, for 4 weeks, using a nebulizer. […]
as §3

A further data set relates to RTP801. The experiment in a line: Short-term (7 day) cigarette smoking model, intralung delivery of RTP801 siRNA. In kind it is in vivo, mouse (C57BL6). The procedure: CS-induced inflammation was induced by 7 day smoking in 2 groups of C57BL6 mice, 10 mice per group. Group 1: CS+delivery of control siRNA (REDD8) siRNA; Group 2: CS+RTP801 siRNA (REDD14). Control groups of mice were instilled with either type of siRNA but kept in room air conditions. The animals were evaluated as in the above experiment with the Knock-Out mice.
Exposure was carried out (7 h/day, 7 days/week) by burning 2R4F reference cigarettes (2.45 mg nicotine per cigarette; purchased from the Tobacco Research Institute, University of Kentucky, Lexington, Ky., USA) using a smoking machine (Model TE-10, Teague Enterprises, Davis, Calif., USA). Each smoldering cigarette was puffed for 2 s, once every minute for a total of eight puffs, at a flow rate of 1.05 L/min, to provide a standard puff of 35 cm^3. The smoke machine was adjusted to produce a mixture of sidestream smoke (89%) and mainstream smoke (11%) by burning five cigarettes at one time. Chamber atmosphere was monitored for total suspended particulates and carbon monoxide, with concentrations of 90 mg/m3 and 350 ppm, respectively.
Following exposure to CS or instillation of RTP801 expressing plasmid, the mice were anesthetized with sodium pentobarbital. […] The total number of cells in the lavage fluid was determined, and 2×10^4 cells were cytocentrifuged (Shandon Southern Products, Pittsburgh, Pa., USA) onto glass slides and stained with Wright-Giemsa stain. […]
Immunohistochemical staining of active caspase-3 assay was performed using anti-active caspase-3 antibody and the active caspase-3-positive cells were counted with a macro, using Image Pro Plus program. […]
The activity of caspase-3 activity was measured in lung tissue extracts using a fluorometric assay according to the manufacturer's instructions. […] After removal of nuclei and cellular debris, the supernatant (300 μg protein) was then incubated with the pro-fluorescent substrate at room temperature for 1 h and the fluorescence intensity was measured utilizing a Typhoon phosphoimager (Amersham Biosciences, Inc., Piscataway, N.J., USA). […]

The nature of data set [1]: Qualitative distribution of REDD14Cy3.5 siRNA in lung and kidney (fluorescence analysis). In kind it is in vivo, cynomolgus monkeys. The procedure: On Day 15 of the study, two of the available animals (101 and 102) were administered a target dose of 35 mg/kg of a mixture of I5NP and REDD14Cy3.5 (fluorescence-labelled) siRNA via an oronasal mask as a nebulized aerosol generated by the Aeroneb device. A 2.0 L/min dilution airflow was used. The total dose of siRNA administered was calculated, based on the bodyweights and measured respiratory minute volumes of the animals, and on the achieved output of the Aeroneb device using the formulation concentration of 40 mg/mL of siRNA. The administered dose was adjusted by changing the exposure times for the animals
At the time of necropsy following Treatment 2, the lungs, bronchi and trachea of animal 102 were removed from the animal. The lungs were perfused with 4% paraformaldehyde, introduced using a syringe, via the trachea and/or bronchus and stored in this fixative at ambient temperature for a period of approximately 21 hours. Following this, as much as possible of the original fixative fluid was withdrawn by syringe via the trachea/bronchus and replaced with 0.2% paraformaldehyde. The fixed lungs were analyzed for fluorescence distribution.
At the time of necropsy following Treatment 2, the right kidney of animal 102 was removed from the animal. The kidney was dissected into quarters by making one longitudinal and one transverse cut, each to pass through the hilus, and then immersed in 4% paraformaldehyde and refrigerated for approximately 21 hours. Following this, the fixing solution was changed to 0.2% paraformaldehyde and the kidney was analyzed for fluorescence distribution.
Following Treatment 2, lung and kidney samples from animal 102 were analyzed for distribution of fluorescence (from REDD14Cy3.5 siRNA). The results were considered to be qualitative.

Setting [2] is: Treatment 2, animal 102, approximately 30 minutes post-end of dosing, qualitative.

Take `N.N.O=C([O-])C1(C(=O)[O-])CCC1.[Pt+2]` [Vehicle siRNA + carboplatin, carboplatin]: in the data set with A549 lung tumors, the “Mean (SD) tumor weight” value is 495 (49.5) mg.
With “GFP siRNA: control siRNA targeting GFP; sense 5′-GGCUACGUCCAGGAGCGCACC-3′, antisense 5′-GGUGCGCUCCUGGACGUAGCC-3′ (alternating 2'-O-methyl on both strands, starting position not given here)”, the “Mean (SD) tumor weight” value with A549 lung tumors is given as 710 (167.93) mg.
In the case of “Nrf2 siRNA: siRNA targeting human Nrf2, alternating 2-O′-Me; sense 5′-UCCCGUUUGUAGAUGACAA-3′, antisense 5′-UUGUCAUCUACAAACGGGA-3′ (alternating 2'-O-methyl on both strands, starting position not given here)”, the “Mean (SD) tumor weight” value with A549 lung tumors is 802 (172.25) mg. For the same compound, the “Nrf2 reporter activity in vivo” value in the data set with Nrf2 was “inhibited Nrf2 reporter activity in vivo”.
In the case of “REDD14: exemplary siRNA in aqueous solution directed against gene RTP801; sense GUGCCAACCUGAUGCAGCU, antisense AGCUGCAUCAGGUUGGCAC (chemistry not fully specified)”, in the data set on RTP801 (50 μg siRNA instilled intranasally, FIG. 3b), the “RTP801 expression in the lungs” value is listed as “reduction of RTP801 expression in the lungs”. Further, in the data set on RTP801 (1 week of cigarette smoking, FIG. 3c), the “cigarette smoking induced apoptosis of lung septal cells (activated caspase staining, caspase 3 immunoblot)” value is on record as “partially protected from cigarette smoking induced apoptosis of lung septal cells”. In the data set on RTP801 (1 week of cigarette smoking, versus control siRNA REDD8, FIG. 3a), the “cigarette smoking induced inflammation (number of inflammatory bronchoalveolar lavage cells)” value is reported as “partially protected from cigarette smoking induced inflammation”.
“REDD14Cy3.5: fluorescent-labelled (Cy3.5) REDD14, RTP801 inhibiting siRNA; sense GUGCCAACCUGAUGCAGCU, antisense AGCUGCAUCAGGUUGGCAC (Cy3.5 fluorescent label, position and strand not given here)”: in data set [1] (setting [2]), the “fluorescent label in lungs” value was “detected in all sections taken from all lobes of the lungs” and the “fluorescent label in right kidney” value was “little label detected in the right kidney”. Further, the “distribution in lung, I5NP (hybridization) and REDD14Cy3.5 (fluorescence) compared” value in data set [1] (after oronasal inhalation) is on record as “little difference in the distribution of the two test articles in lung”.
